Patent US7858654B2, “Imidazole-substituted arylamides as P2X3 and P2X2/3 antagonists” (Roche Palo Alto LLC, priority 2007, dated 2010)

Legend:
human P2X2/3 receptor = biological target: T1, human P2X2/3 receptor (Homo sapiens, UniProt P56373+Q9UBL9); assay: P2X2/3 FLIPR (Fluorometric Imaging Plate Reader) assay; type: cell-based; details: transfected CHO-K1 cells; agonist α,β-meATP 5 μM; Fluo-3 calcium fluorescence; read-out: pKi for the P2X2/3 receptor (converted)
T1 construct: expressed in transfected cells; host or cells: CHO-K1
T1 sequence (Q9UBL9 1-471): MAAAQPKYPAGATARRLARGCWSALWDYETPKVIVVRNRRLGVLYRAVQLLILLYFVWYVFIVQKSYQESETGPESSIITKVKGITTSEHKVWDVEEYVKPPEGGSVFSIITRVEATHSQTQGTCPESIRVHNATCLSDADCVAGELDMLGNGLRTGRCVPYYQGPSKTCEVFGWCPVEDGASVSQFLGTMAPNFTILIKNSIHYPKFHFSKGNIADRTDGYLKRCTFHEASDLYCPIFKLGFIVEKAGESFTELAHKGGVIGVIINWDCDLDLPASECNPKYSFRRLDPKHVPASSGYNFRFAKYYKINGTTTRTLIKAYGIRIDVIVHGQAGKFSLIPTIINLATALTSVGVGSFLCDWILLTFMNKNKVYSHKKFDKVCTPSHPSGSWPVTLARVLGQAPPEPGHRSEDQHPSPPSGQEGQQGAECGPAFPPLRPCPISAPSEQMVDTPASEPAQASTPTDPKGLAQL
T1 sequence (P56373 1-397): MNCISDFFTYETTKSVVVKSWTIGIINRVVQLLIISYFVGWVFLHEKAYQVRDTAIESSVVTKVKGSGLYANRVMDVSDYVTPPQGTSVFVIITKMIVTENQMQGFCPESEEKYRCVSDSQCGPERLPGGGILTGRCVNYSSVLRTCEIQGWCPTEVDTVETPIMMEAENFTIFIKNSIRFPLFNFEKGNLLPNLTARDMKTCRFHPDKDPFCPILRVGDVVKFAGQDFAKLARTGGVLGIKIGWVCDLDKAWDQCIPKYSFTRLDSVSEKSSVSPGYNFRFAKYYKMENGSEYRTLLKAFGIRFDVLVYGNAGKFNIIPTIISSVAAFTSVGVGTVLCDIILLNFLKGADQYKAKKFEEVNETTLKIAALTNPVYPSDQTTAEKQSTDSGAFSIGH
Protocol: (§1) CHO-K1 cells were transfected with cloned rat P2X3 or human P2X2/3 receptor subunits and passaged in flasks. 18-24 hours before the FLIPR experiment, cells were released from their flasks, centrifuged, and resuspended in nutrient medium at 2.5×10^5 cells/ml. The cells were aliquoted into black-walled 96-well plates at a density of 50,000 cells/well and incubated overnight in 5% CO2 at 37° C. On the day of the experiment, cells were washed in FLIPR buffer (calcium- and magnesium-free Hank's balanced salt solution, 10 mM HEPES, 2 mM CaCl2, 2.5 mM probenecid; FB). Each well received 100 μl FB and 100 μl of the fluorescent dye Fluo-3 AM [2 μM final conc.]. […]
(§2) Test compounds (dissolved in DMSO at 10 mM and serially diluted with FB) or vehicle were added to each well (25 μl of a 4× solution) and allowed to equilibrate for 20 minutes at room temperature. The plates were then placed in the FLIPR and a baseline fluorescence measurement (excitation at 488 nm and emission at 510-570 nm) was obtained for 10 seconds before a 100 μl/well agonist or vehicle addition. […] Fluorescence was measured for an additional 2 minutes at 1 second intervals after agonist addition. A final addition of ionomycin (5 μM, final concentration) was made to each well of the FLIPR test plate to establish cell viability and maximum fluorescence of dye-bound cytosolic calcium. […]

rat P2X3 receptor = biological target: T2, rat P2X3 receptor (Rattus norvegicus, UniProt P49654); assay: P2X3 FLIPR (Fluorometric Imaging Plate Reader) assay; type: cell-based; details: transfected CHO-K1 cells; agonist α,β-meATP 1 μM; Fluo-3 calcium fluorescence; read-out: pIC50 for the P2X3 receptor (converted)
T2 construct: expressed in transfected cells; host or cells: CHO-K1
T2 sequence (P49654 1-397): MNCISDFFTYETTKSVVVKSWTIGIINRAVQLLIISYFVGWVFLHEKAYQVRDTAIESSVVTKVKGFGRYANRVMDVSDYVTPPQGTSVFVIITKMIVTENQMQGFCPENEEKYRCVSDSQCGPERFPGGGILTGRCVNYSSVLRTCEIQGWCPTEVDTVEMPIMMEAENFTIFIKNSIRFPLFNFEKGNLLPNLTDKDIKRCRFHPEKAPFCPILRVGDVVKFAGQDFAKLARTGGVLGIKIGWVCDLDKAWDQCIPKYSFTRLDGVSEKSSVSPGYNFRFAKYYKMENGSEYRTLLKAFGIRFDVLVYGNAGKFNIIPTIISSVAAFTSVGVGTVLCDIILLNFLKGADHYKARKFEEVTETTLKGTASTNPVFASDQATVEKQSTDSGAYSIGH
Protocol: as §1, §2

Ki (human P2X2/3 receptor) [nM] | IC50 (rat P2X3 receptor) [nM] | SMILES
~46.8 |  | Cc1ccc(-c2cc(C(=O)NC(C)c3cnccn3)cc(-n3ccnc3C(C)C)c2)cc1 (centres unmarked) [Compound 27, 5-(2-Isopropyl-imidazol-1-yl)-4′-methyl-biphenyl-3-carboxylic acid (1-pyrazin-2-yl-ethyl)-amide]
 | ~2.82 | CCc1nccn1-c1cc(C(=O)NCc2cnc(C)cn2)cc(-c2ccc(C)cn2)c1 [Compound 29, 3-(2-Ethyl-imidazol-1-yl)-N-(5-methyl-pyrazrn-2-ylmethyl)-5-(5-methyl-pyridin-2-yl)-benzamide]
